Our source for the EC50 values is US20050203151A1, “Novel compounds, compositions and uses thereof for treatment of metabolic disorders and related conditions” (Kalypsys, Inc., priority 2003, published 2005).

Read-outs that look alike come from different tables or passages of the source. A value given as a limit tells only on which side of the number the result lay.

Type in all cases: cell-based
The target of assay [1] is T1, PPAR-gamma (Homo sapiens, UniProt P37231).
T1 construct: expressed in transfected cells; host or cells: CV-1 cells
T1 sequence (P37231 238-503 limits assumed): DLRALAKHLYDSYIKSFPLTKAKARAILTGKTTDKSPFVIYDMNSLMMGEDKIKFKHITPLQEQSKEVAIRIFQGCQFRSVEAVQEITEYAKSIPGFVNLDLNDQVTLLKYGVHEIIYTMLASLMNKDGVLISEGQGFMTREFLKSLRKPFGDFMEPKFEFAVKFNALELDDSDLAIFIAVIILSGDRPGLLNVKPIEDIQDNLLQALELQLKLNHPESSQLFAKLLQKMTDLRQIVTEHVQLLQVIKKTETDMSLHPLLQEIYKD
The assay is described as follows: human PPAR-GAL4 chimera luciferase reporter assay in CV-1 cells, PPAR-gamma. On the procedure: (§1) The compounds were evaluated in a cell-based assay to determine their human PPAR activity. The plasmids for human PPAR-GAL4 chimeras were prepared by fusing amplified cDNAs encoding the LBDs of PPARs to the C-terminal end of the yeast GAL4 DNA binding domain. CV-1 cells were grown and transiently transected with PerFectin (GTS, San Diego, Calif.) according to the manufacturer's protocol along with a luciferase reporter. Eight hours after transfection, 50 μl of cells were replated into 384 well plates ([…]). Sixteen hours after replating, cells were treated with either compounds or 1% DMSO for 24 hours. Luciferase activity was then assayed with Britelite (Perkin Elmer) following the manufacturer's protocol and measured with either the Perkin Elmer Viewlux or Molecular Devices Acquest.
(§2) Compounds may be screened for functional potency in transient transfection assays in CV-1 cells for their ability to activate the PPAR subtypes (transactivation assay). A previously established chimeric receptor system was utilized to allow comparison of the relative transcriptional activity of the receptor subtypes on the same synthetic response element and to prevent endogenous receptor activation from complicating the interpretation of results. See, for example, Lehmann, J. M.; Moore, L. B.; Smith-Oliver, T. A; Wilkinson, W. O.; Willson, T. M.; Kliewer, S. A., An antidiabetic thiazolidinedione is a high affinity ligand for peroxisome proliferator-activated receptory γ (PPARγ), J. Biol. Chem., 1995, 270, 12953-6. The ligand binding domains for murine and human PPAR-alpha, PPAR-gamma, and PPAR-delta are each fused to the yeast transcription factor GAL4 DNA binding domain. CV-1 cells were transiently transfected with expression vectors for the respective PPAR chimera along with a reporter construct containing four or five copies of the GAL4 DNA binding site driving expression of luciferase. After 8-16 h, the cells are replated into multi-well assay plates and the media is exchanged to phenol-red free DME medium supplemented with 5% delipidated calf serum. 4 hours after replating, cells were treated with either compounds or 1% DMSO for 20-24 hours. Luciferase activity was then assayed with Britelite (Perkin Elmer) following the manufacturer's protocol and measured with either the Perkin Elmer Viewlux or Molecular Devices Acquest (see, for example, Kliewer, S. A., et. al. Cell 1995, 83, 813-819). Rosiglitazone is used as a positive control in the hPPAR-γ assay. Wy-14643 and GW7647 is used as a positive control in the hPPAR-α assay. GW501516 is used as the positive control in the hPPAR-δ assay.

In assay [2] the target is T2, PPAR-delta (Homo sapiens, UniProt Q03181).
T2 construct: expressed in transfected cells; host or cells: CV-1 cells
T2 sequence (Q03181 211-439 limits assumed): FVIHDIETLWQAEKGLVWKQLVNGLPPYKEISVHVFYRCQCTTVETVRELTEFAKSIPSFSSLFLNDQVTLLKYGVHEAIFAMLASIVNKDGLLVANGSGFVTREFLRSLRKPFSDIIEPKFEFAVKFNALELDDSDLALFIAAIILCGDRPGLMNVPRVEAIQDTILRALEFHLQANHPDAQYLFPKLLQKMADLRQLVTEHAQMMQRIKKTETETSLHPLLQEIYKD
Kind of assay: human PPAR-GAL4 chimera luciferase reporter assay in CV-1 cells, PPAR-delta. On the procedure: as §1, §2

Assay [3] has as its target T3, PPAR-alpha (Homo sapiens, UniProt Q07869).
T3 construct: expressed in transfected cells; host or cells: CV-1 cells
T3 sequence (Q07869 239-466 limits assumed): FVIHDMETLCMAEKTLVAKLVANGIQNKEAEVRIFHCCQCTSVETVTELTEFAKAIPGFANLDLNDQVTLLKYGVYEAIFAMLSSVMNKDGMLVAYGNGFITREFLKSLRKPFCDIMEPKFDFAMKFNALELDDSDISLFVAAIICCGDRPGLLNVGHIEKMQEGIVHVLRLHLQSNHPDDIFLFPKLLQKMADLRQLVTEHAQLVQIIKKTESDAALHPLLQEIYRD
Kind of assay: human PPAR-GAL4 chimera luciferase reporter assay in CV-1 cells, PPAR-alpha. On the procedure:
as §1, §2
A general note: A reporter such as luciferase makes a cellular process visible.

[4] abbreviates: Table 2, Examples 1-10, read-out: PPAR γ EC50.
[5] abbreviates: Table 2, Examples 1-10, read-out: PPAR δ EC50.
Where [6] appears, read: Table 2, Examples 1-10, read-out: PPAR α EC50.
[7] abbreviates: Table 3, Examples 11-25, read-out: PPAR gamma (EC50).
[8] abbreviates: Table 3, Examples 11-25, read-out: PPAR delta (EC50).
[9] abbreviates: Table 3, Examples 11-25, read-out: PPAR alpha (EC50).

Take `Cc1nc(-c2ccc(C(F)(F)F)cc2)sc1COc1cccc(CC(=O)O)c1` [Example 1, {3-[4-methyl-2-(4-trifluoromethyl-phenyl)-thiazol-5-ylmethoxy]-phenyl}-acetic acid]: the EC50 was 1 to 10 µM in assay [1] (setting [4]), under 1 µM in assay [2] (setting [5]) and under 1 µM in assay [3] (setting [6]).

Regarding `Cc1nc(-c2ccc(C(F)(F)F)cc2)sc1CSc1cccc(CC(=O)O)c1` [Example 2, {3-[4-methyl-2-(4-trifluoromethyl-phenyl)-thiazol-5-ylmethylsulfanyl]-phenyl}-acetic acid], the EC50 in assay [1] (setting [4]) is 1 to 10 µM; in assay [2] (setting [5]), under 1 µM; in assay [3] (setting [6]), under 1 µM.

As for `Cc1nc(-c2ccc(C(F)(F)F)cc2)sc1COc1ccc2c(ccn2CC(=O)O)c1` [Example 3, {5-[4-methyl-2-(4-trifluoromethyl-phenyl)-thiazol-5-ylmethoxy]-indol-1-yl}-acetic acid], the EC50 in assay [1] (setting [4]), in assay [2] (setting [5]) and in assay [3] (setting [6]) was over 10 µM each time.

As to `Cc1nc(-c2ccc(C(F)(F)F)cc2)sc1COc1cccc2c1ccn2CC(=O)O` [Example 4, {4-[4-methyl-2-(4-trifluoromethyl-phenyl)-thiazol-5-ylmethoxy]-indol-1-yl}-acetic acid], the figures for the EC50 in assay [1] (setting [4]), in assay [2] (setting [5]) and in assay [3] (setting [6]) were 1 to 10 µM, under 1 µM and over 10 µM, respectively.

Take `Cc1nc(-c2ccc(C(F)(F)F)cc2)sc1COc1ccc2ccn(CC(=O)O)c2c1` [Example 5, {6-[4-methyl-2-(4-trifluoromethyl-phenyl)-thiazol-5-ylmethoxy]-indol-1-yl}-acetic acid]: the EC50 in assay [1] (setting [4]) is 1 to 10 µM; in assay [2] (setting [5]), under 1 µM; in assay [3] (setting [6]) it was over 10 µM.

Turning to `Cc1nc(-c2ccc(C(F)(F)F)cc2)sc1COc1cccc2ccn(CC(=O)O)c12` [Example 6, {7-[4-methyl-2-(4-trifluoromethyl-phenyl)-thiazol-5-ylmethoxy]-indol-1-yl}-acetic acid], the EC50 in assay [1] (setting [4]), in assay [2] (setting [5]) and in assay [3] (setting [6]) was over 10 µM each time.

On to `Cc1nc(-c2ccc(C(F)(F)F)cc2)sc1COc1ccc2[nH]cc(CC(=O)O)c2c1` [Example 7, {5-[4-Methyl-2-(4-trifluoromethyl-phenyl)-thiazol-5-ylmethoxy]-1H-indol-3-yl}-acetic acid], for which the EC50 in assay [1] (setting [4]) is under 1 µM; in assay [2] (setting [5]), under 1 µM; in assay [3] (setting [6]) it was over 10 µM.

Take `Cc1nc(-c2ccc(C(F)(F)F)cc2)sc1Cn1cc(C(=O)O)c2ccccc21` [Example 8]: the EC50 in assay [1] (setting [4]), in assay [2] (setting [5]) and in assay [3] (setting [6]) was over 10 µM in each case.

For the molecule `Cc1nc(-c2ccc(C(F)(F)F)cc2)sc1Cn1ccc2c(C(=O)O)cccc21` [Example 9, 1-[4-methyl-2-(4-trifluoromethyl-phenyl)-thiazol-5-ylmethyl]-1H-indole-4-carboxylic acid], the EC50 in assay [1] (setting [4]), in assay [2] (setting [5]) and in assay [3] (setting [6]) was over 10 µM each time.

`Cc1nc(-c2ccc(C(F)(F)F)cc2)sc1Cn1ccc2cc(C(=O)O)ccc21` [Example 10, 1-[4-methyl-2-(4-trifluoromethyl-phenyl)-thiazol-5-ylmethyl]-1H-indole-5-carboxylic acid]: the EC50 in assay [1] (setting [4]), in assay [2] (setting [5]) and in assay [3] (setting [6]) was over 10 µM in each case.

Take `Cc1nc(-c2ccc(C(F)(F)F)cc2)sc1Cn1ccc2c(OCC(=O)O)cccc21` [Example 11, {1-[4-Methyl-2-(4-trifluoromethyl-phenyl)-thiazol-5-ylmethyl]-1H-indol-4-yloxy}acetic acid]: the EC50 in assay [1] (setting [7]), in assay [2] (setting [8]) and in assay [3] (setting [9]) was over 100 µM each time.

Regarding `Cc1nc(-c2ccc(C(F)(F)F)cc2)sc1Cn1ccc2cc(OCC(=O)O)ccc21` [Example 12, {1-[4-Methyl-2-(4-trifluoromethyl-phenyl)-thiazol-5-ylmethyl]-1H-indol-5-yloxy}-acetic acid], the EC50 in assay [1] (setting [7]), in assay [2] (setting [8]) and in assay [3] (setting [9]) was 5 to 100 µM throughout.

`Cc1nc(-c2ccc(C(F)(F)F)cc2)sc1Cn1ccc2ccc(OCC(=O)O)cc21` [Example 13, {1-[4-Methyl-2-(4-trifluoromethyl-phenyl)-thiazol-5-ylmethyl]-1H-indol-6-yloxy}-acetic acid]: the EC50 in assay [1] (setting [7]) is 5 to 100 µM; in assay [2] (setting [8]) it was under 5 µM; in assay [3] (setting [9]), 5 to 100 µM.

In the case of `Cc1nc(-c2ccc(C(F)(F)F)cc2)sc1Cn1ccc2cccc(OCC(=O)O)c21` [Example 14, {1-[4-Methyl-2-(4-trifluoromethyl-phenyl)-thiazol-5-ylmethyl]-1H-indol-7-yloxy}-acetic acid], the EC50 in assay [1] (setting [7]) is 5 to 100 µM; in assay [2] (setting [8]) it was 5 to 100 µM; in assay [3] (setting [9]) it was over 100 µM.

For `Cc1nc(-c2ccc(C(F)(F)F)cc2)sc1Cn1ccc2cc(OC(C)(C)C(=O)O)ccc21` [Example 15, 2-Methyl-2-{1-[4-methyl-2-(4-trifluoromethyl-phenyl)-thiazol-5-ylmethyl]-1H-indol-5-yloxy}-propionic acid], the EC50 was 5 to 100 µM in assay [1] (setting [7]), under 5 µM in assay [2] (setting [8]) and under 5 µM in assay [3] (setting [9]).

For `Cc1nc(-c2ccc(C(F)(F)F)cc2)sc1Cn1ccc2ccc(OC(C)(C)C(=O)O)cc21` [Example 16, 2-Methyl-2-{1-[4-methyl-2-(4-trifluoromethyl-phenyl)-thiazol-5-ylmethyl]-1H-indol-6-yloxy}-propionic acid], the EC50 in assay [1] (setting [7]) is 5 to 100 µM; in assay [2] (setting [8]) it was under 5 µM; in assay [3] (setting [9]) it was 5 to 100 µM.

For the molecule `Cc1nc(-c2ccc(C(F)(F)F)cc2)sc1CCN1CCc2cc(OCC(=O)O)ccc21` [Example 17, (1-{2-[4-Methyl-2-(4-trifluoromethyl-phenyl)-thiazol-5-yl]-ethyl}-2,3-dihydro-1H-indol-5-yloxy)-acetic acid], the EC50 in assay [1] (setting [7]), in assay [2] (setting [8]) and in assay [3] (setting [9]) was 5 to 100 µM each time.

Regarding `Cc1nc(-c2ccc(C(F)(F)F)cc2)sc1CCn1ccc2cc(OCC(=O)O)ccc21` [Example 18, (1-{2-[4-Methyl-2-(4-trifluoromethyl-phenyl)-thiazol-5-yl]-ethyl}-1H-indol-5-yloxy)-acetic acid], the EC50 in assay [1] (setting [7]), in assay [2] (setting [8]) and in assay [3] (setting [9]) was 5 to 100 µM each time.

Turning to `Cc1nc(-c2ccc(C(F)(F)F)cc2)sc1CCN1CCc2cc(OC(C)(C)C(=O)O)ccc21` [Example 19, 2-Methyl-2-(1-{2-[4-methyl-2-(4-trifluoromethyl-phenyl)-thiazol-5-yl]-ethyl}-2,3-dihydro-1H-indol-5-yloxy)-propionic acid], the EC50 in assay [1] (setting [7]) is 5 to 100 µM; in assay [2] (setting [8]) it was under 5 µM; in assay [3] (setting [9]) it was under 5 µM.

For the molecule `Cc1nc(-c2ccc(C(F)(F)F)cc2)sc1CCN1CCc2ccc(OC(C)(C)C(=O)O)cc21` [Example 20, 2-Methyl-2-(1-{2-[4-methyl-2-(4-trifluoromethyl-phenyl)-thiazol-5-yl]-ethyl}-2,3-dihydro-1H-indol-6-yloxy)-propionic acid], the EC50 in assay [1] (setting [7]) was 5 to 100 µM; in assay [2] (setting [8]), 5 to 100 µM; in assay [3] (setting [9]) it was under 5 µM.
